Experimental data taken from the NIST ThermoML archive (doi:10.1021/acs.jced.8b00509).

Experiment: mn = molality of the nth substance listed, in mol/kg
Conditions: 100 kPa, Liquid; for viscosity: Capillary tube (Ostwald / Ubbelohde) method; for speed of sound: Frequency=3 MHz, Single path-length method; for mass density: Vibrating tube method

C[C@H](CCC(=O)[O-])[C@H]1CC[C@H]2[C@@H]3[C@H](O)C[C@@H]4C[C@H](O)CC[C@]4(C)[C@H]3C[C@H](O)[C@]12C.[Na+] [sodium cholate] + O
Conditions	mass density [kg/m3]	speed of sound [m/s]	viscosity [mPa·s]
293.15 K, m1 = 0.002	998.46	1483.6	1.004
293.15 K, m1 = 0.004	998.67	1484.3	1.007
293.15 K, m1 = 0.006	998.88	1484.8	1.011
293.15 K, m1 = 0.008	999.1	1485.3	1.016
293.15 K, m1 = 0.01	999.32	1486	1.021
293.15 K, m1 = 0.012	999.53	1486.7	1.025
293.15 K, m1 = 0.014	999.76	1487.3	1.032
293.15 K, m1 = 0.016	999.98	1487.8	1.037
293.15 K, m1 = 0.018	1000.2	1488.3	1.041
293.15 K, m1 = 0.02	1000.41	1488.8	1.044
293.15 K, m1 = 0.022	1000.63	1489	1.048
293.15 K, m1 = 0.024	1000.83	1489.6	1.051
298.15 K, m1 = 0.002	997.29	1497.5	0.893
298.15 K, m1 = 0.004	997.5	1498	0.896
298.15 K, m1 = 0.006	997.7	1498.6	0.899
298.15 K, m1 = 0.008	997.91	1499.2	0.903
298.15 K, m1 = 0.01	998.13	1499.9	0.906
298.15 K, m1 = 0.012	998.34	1500.5	0.911
298.15 K, m1 = 0.014	998.56	1501	0.918
298.15 K, m1 = 0.016	998.77	1501.6	0.922
298.15 K, m1 = 0.018	998.97	1502	0.926
298.15 K, m1 = 0.02	999.19	1502.3	0.93
298.15 K, m1 = 0.022	999.39	1502.8	0.933
298.15 K, m1 = 0.024	999.6	1503.3	0.936
303.15 K, m1 = 0.002	995.88	1509.8	0.8
303.15 K, m1 = 0.004	996.08	1510.2	0.803
303.15 K, m1 = 0.006	996.29	1510.8	0.806
303.15 K, m1 = 0.008	996.49	1511.3	0.809
303.15 K, m1 = 0.01	996.7	1511.9	0.813
303.15 K, m1 = 0.012	996.91	1512.4	0.817
303.15 K, m1 = 0.014	997.12	1512.9	0.823
303.15 K, m1 = 0.016	997.34	1513.4	0.827
303.15 K, m1 = 0.018	997.54	1513.8	0.831
303.15 K, m1 = 0.02	997.74	1514.2	0.835
303.15 K, m1 = 0.022	997.94	1514.7	0.838
303.15 K, m1 = 0.024	998.14	1515.1	0.841
308.15 K, m1 = 0.002	994.26	1520.5	0.722
308.15 K, m1 = 0.004	994.46	1520.9	0.725
308.15 K, m1 = 0.006	994.66	1521.4	0.727
308.15 K, m1 = 0.008	994.87	1521.9	0.73
308.15 K, m1 = 0.01	995.08	1522.4	0.734
308.15 K, m1 = 0.012	995.29	1522.9	0.737
308.15 K, m1 = 0.014	995.5	1523.4	0.742
308.15 K, m1 = 0.016	995.7	1523.9	0.747
308.15 K, m1 = 0.018	995.9	1524.4	0.751
308.15 K, m1 = 0.02	996.1	1524.8	0.755
308.15 K, m1 = 0.022	996.29	1525.2	0.758
308.15 K, m1 = 0.024	996.49	1525.6	0.76
313.15 K, m1 = 0.002	992.43	1529.5	0.655
313.15 K, m1 = 0.004	992.63	1529.8	0.658
313.15 K, m1 = 0.006	992.84	1530.3	0.66
313.15 K, m1 = 0.008	993.04	1530.8	0.663
313.15 K, m1 = 0.01	993.24	1531.2	0.666
313.15 K, m1 = 0.012	993.45	1531.7	0.67
313.15 K, m1 = 0.014	993.66	1532.2	0.675
313.15 K, m1 = 0.016	993.85	1532.6	0.679
313.15 K, m1 = 0.018	994.05	1533.1	0.684
313.15 K, m1 = 0.02	994.24	1533.5	0.686
313.15 K, m1 = 0.022	994.45	1533.8	0.689
313.15 K, m1 = 0.024	994.64	1534.2	0.691
